# Key:
# Format in all cases: cell-based
# [1] = test system: clinical MDR-TB strain 31; experiment: AlamarBlue MIC (absorbance), strain panel: 31; settings: Mycobacterium tuberculosis, read-out: MIC, strain 31
# [2] = test system: clinical MDR-TB strain 116; experiment: AlamarBlue MIC (absorbance), strain panel: 116; settings: Mycobacterium tuberculosis, read-out: MIC, strain 116
# clinical strain 210 = experiment: AlamarBlue MIC (absorbance), strain panel: 210; settings: Mycobacterium tuberculosis, drug resistance: None
# [3] = test system: clinical MDR-TB strain 36; experiment: AlamarBlue MIC (absorbance), strain panel: 36; settings: Mycobacterium tuberculosis, read-out: MIC, strain 36
# [4] = test system: H37Rv (laboratory strain); experiment: AlamarBlue MIC (absorbance), strain panel: H37Rv; settings: Mycobacterium tuberculosis, drug resistance: None
# [5] = test system: clinical MDR-TB strain 91; experiment: AlamarBlue MIC (absorbance), strain panel: 91; settings: Mycobacterium tuberculosis, read-out: MIC, strain 91
compound,measurement,setting,value
CCCCC(=O)c1c(C)[n+]([O-])c2ccc([N+](=O)[O-])cc2[n+]1[O-] [SRI50],MIC,[1],0.31 µg/mL
same,MIC,[2],0.16 µg/mL
same,MIC,clinical strain 210,0.31 µg/mL
same,MIC,[3],0.16 µg/mL
same,MIC,[4],0.16 µg/mL
same,MIC,[5],0.16 µg/mL

# Reference: publication PMC4627656, “Combining Metabolite-Based Pharmacophores with Bayesian Machine Learning Models for Mycobacterium tuberculosis Drug Discovery” (PLoS ONE, 2015)
